# Experimental data: patent US9260382B2, “Methods of reducing virulence in bacteria” (priority 2010, dated 2016)
# “Also recorded” adds a separate entry of the source.
# Test system: hrpA promoter (T3SS)
# Assay: GFP reporter plasmid phrpA, flow cytometry (FACS) of hrpA promoter activity
# Type: cell-based, Dickeya dadantii 3937
# Details: D. dadantii 3937 (phrpA), MM + 100 μM compound, 12 h
# Procedure: (§1) FACS analysis of promoter activity of dspE, hrpA, hrpL, hrpN, and hrpS was carried out as described (Peng et al., 2006). Briefly, the wild-type Ech3937 and the mutant strains carrying the promoter reporter plasmid were grown on LB broth at 28° C. overnight and transferred to appropriate media. For FACS analysis, samples were collected by centrifugation, washed with 1× phosphate buffer saline (PBS) at 13,000 rpm for 1 min, and re-suspended in 1×PBS to ca 10^6 CFU/ml prior to being run in a FACS Calibur flow cytometer (BD Biosciences, CA). Three replicates were performed for each treatment.
# To identify potential compounds that repress activation of T3SS, analogs and isomers of TCA and intermediates of salicylic acid and phenypropanoid biosynthesis pathways in plants were further screened for their effect on Ech3937 hrpA expression by flow cytometry (Table 9). A green fluorescent protein (GFP) reporter plasmid phrpA (pProbe-AT derivative with PCR fragment containing hrpA promoter region) was constructed, resulting in a transcriptional fusion of hrpA promoter with GFP gene. Bacterial cells containing phrpA plasmid were grown in MM supplemented with 0.1 mM of each compound. GFP intensity, which is a measurement of hrpA promoter activity, was measured by flow cytometry.
# hrpA encodes the T3SS pilus required for protein translocation into plant cells. To test for an inhibitory effect on T3SS hrpA expression, the reporter plasmid phrpA was used to measure the effects of these compounds on hrpA expression. The reporter plasmid phrpA encodes a transcriptional fusion of the hrpA promoter controlling expression of green fluorescent protein (gfp). 50 μL of bacterial suspension of D. dadantii 3937 carrying the hrpA reporter (optical density at 600 nm OD600=1.0) was used as the initial inoculum and added to 5 mL of MM or MM supplemented with 100 μM of one of the compounds. The expression level of hrpA of these bacterial cells was measured by measuring GFP intensity of gated populations of the bacterial cells by flow cytometry and analyzed with Cell Quest software (BD Biosciences, San Jose, Calif.). The fluorescence intensities were an average GFP fluorescence intensity of total bacterial cells. Compounds were assayed two different times (12 and 24 h of bacterial growth) with T3SS minimal media (MM) as the control treatment for each set of experiment. Values presented in Table 14 are mean fluorescence intensity of GFP, representative of two experiments, presented as the average of three replicates with standard deviation (SD).
row,SMILES,"mean fluorescence intensity of GFP, hrpA expression"
1,"COC(=O)/C=C/c1ccc(O)cc1 [Compound 101, Methyl para-coumate]",17.5 ± 0.7
2,"COc1ccc(/C=C/CO)cc1 [Compound 126, trans-4-Methoxycinnamyl alcohol]",7.8 ± 0.2
3,"O=C(O)/C=C/c1ccc(Br)cc1 [Compound 111, trans-4-Bromocinnamic acid]",23.9 ± 5.2
4,"O=C(/C=C/c1c[nH]c2ccccc12)NO [Compound 127, trans-3-Indoleacrylohydroxamic acid]",21.0 ± 3.0
5,"CCOC(=O)[C@@H]1C[C@H]1c1ccc(O)cc1 (relative stereo) [Compound 106, Ethyl trans-2-(4-hydroxyphenyl)-1-cyclopropanecarboxylate]",10.5 ± 0.8
6,"O=C1c2ccccc2C(=O)N1C/C=C/c1ccc(O)cc1 [Compound 116, N-(para-Coumaryl)phthalimide]",24.3 ± 1.5
7,"COc1ccc(/C=C/CN2C(=O)c3ccccc3C2=O)cc1 [Compound 118, N-(4-Methoxycinnamyl)phthalimide]",59.0 ± 0.4

# Same assay, conditions: D. dadantii 3937 (phrpA), MM + 100 μM compound, 24 h
row,SMILES,"mean fluorescence intensity of GFP, hrpA expression"
1,"COC(=O)/C=C/c1ccc(O)cc1 [Compound 101, Methyl para-coumate]",19.9 ± 0.5
2,"COc1ccc(/C=C/CO)cc1 [Compound 126, trans-4-Methoxycinnamyl alcohol]",13.4 ± 0.3
3,"O=C(O)/C=C/c1ccc(Br)cc1 [Compound 111, trans-4-Bromocinnamic acid]",54.7 ± 7.2
4,"O=C(/C=C/c1c[nH]c2ccccc12)NO [Compound 127, trans-3-Indoleacrylohydroxamic acid]",35.1 ± 3.0
5,"CCOC(=O)[C@@H]1C[C@H]1c1ccc(O)cc1 (relative stereo) [Compound 106, Ethyl trans-2-(4-hydroxyphenyl)-1-cyclopropanecarboxylate]",49.4 ± 4.1
6,"O=C1c2ccccc2C(=O)N1C/C=C/c1ccc(O)cc1 [Compound 116, N-(para-Coumaryl)phthalimide]",39.3 ± 3.5
7,"COc1ccc(/C=C/CN2C(=O)c3ccccc3C2=O)cc1 [Compound 118, N-(4-Methoxycinnamyl)phthalimide]",83.8 ± 1.7

# Same assay, conditions: D. dadantii 3937, reporter plasmid phrpA, 100 μM
row,SMILES,"inhibitory activity on T3SS gene (hrpA) expression, in words"
1,"COc1ccc(/C=C/CO)cc1 [Compound 126, trans-4-Methoxycinnamyl alcohol]",showed inhibitory effect; also recorded: potent inhibitor
2,"O=C(O)/C=C/c1ccc(Br)cc1 [Compound 111, trans-4-Bromocinnamic acid]",showed inhibitory effect; also recorded: moderate potency
3,"O=C(/C=C/c1c[nH]c2ccccc12)NO [Compound 127, trans-3-Indoleacrylohydroxamic acid]",showed inhibitory effect; also recorded: moderate potency
4,"CCOC(=O)[C@@H]1C[C@H]1c1ccc(O)cc1 (relative stereo) [Compound 106, Ethyl trans-2-(4-hydroxyphenyl)-1-cyclopropanecarboxylate]",showed inhibitory effect; also recorded: strong inhibitory potency
5,"O=C1c2ccccc2C(=O)N1C/C=C/c1ccc(O)cc1 [Compound 116, N-(para-Coumaryl)phthalimide]",showed inhibitory effect; also recorded: moderated inhibitory activity

# Same assay, conditions: Dickeya dadantii, read-out: minimal inhibitory concentration on hrpA expression (concentration showing inhibitory effect)
row,SMILES,minimal effective concentration [µM]
1,"COC(=O)/C=C/c1ccc(O)cc1 [Compound 101, Methyl para-coumate]",100
2,"COc1ccc(/C=C/CO)cc1 [Compound 126, trans-4-Methoxycinnamyl alcohol]",100
3,"O=C(/C=C/c1c[nH]c2ccccc12)NO [Compound 127, trans-3-Indoleacrylohydroxamic acid]",100
4,"CCOC(=O)[C@@H]1C[C@H]1c1ccc(O)cc1 (relative stereo) [Compound 106, Ethyl trans-2-(4-hydroxyphenyl)-1-cyclopropanecarboxylate]",100
5,"O=C1c2ccccc2C(=O)N1C/C=C/c1ccc(O)cc1 [Compound 116, N-(para-Coumaryl)phthalimide]",100

# Same assay, conditions: Trial 1, MM supplemented with compound at 100 μM
row,SMILES,"Mean Fluorescence Intensity of GFP (hrpA, phrpA)"
1,"O=C(O)/C=C/c1ccc(Br)cc1 [Compound 111, trans-4-Bromocinnamic acid]",16.5 ± 0.8
2,"CCOC(=O)[C@@H]1C[C@H]1c1ccc(O)cc1 (relative stereo) [Compound 106, Ethyl trans-2-(4-hydroxyphenyl)-1-cyclopropanecarboxylate]",9.4 ± 0.1

# Same assay, conditions: Trial 2, MM supplemented with compound at 100 μM
row,SMILES,"Mean Fluorescence Intensity of GFP (hrpA, phrpA)"
1,"COc1ccc(/C=C/CO)cc1 [Compound 126, trans-4-Methoxycinnamyl alcohol]",9.5 ± 0.7
2,"O=C(/C=C/c1c[nH]c2ccccc12)NO [Compound 127, trans-3-Indoleacrylohydroxamic acid]",26.2 ± 2.6
3,"O=C1c2ccccc2C(=O)N1C/C=C/c1ccc(O)cc1 [Compound 116, N-(para-Coumaryl)phthalimide]",27.0 ± 2.1

# Test system: exoS promoter (T3SS)
# Assay: exoS promoter-gfp reporter pATexoS, flow cytometry
# Type: cell-based, P. aeruginosa PA01
# Details: 20 uM, 6 h, LB with 200 mM NaCl, 10 mM NTA
# Procedure: To identify T3SS inhibitors of PA01, a promoter-probe vector pPROBE-AT containing the promoterless green fluorescent protein (gfp) gene was used to construct an exoS promoter-gfp plasmid reporter, pATexoS. PA01 containing pATexoS was cultured in T3SS-inducing medium containing dimethyl sulfoxide (DMSO; solvent of chemical compounds), or supplemented with 250 μM of each compound, and promoter activity was assessed at 6 h by measuring GFP intensity using flow cytometry. 101 compounds (58 synthesized and 43 commercially available) were screened. Compounds 027, 032, 101, and 149 repressed exoS expression at the final concentration of 250 μM by at least one standard deviation below the sample average (Z score≦−1) (FIG. 37 A-E). Z score (or standard score) indicates how many standard deviations an observation or datum is above or below the mean [z=(x−μ)/σ, where x is a raw score to be standardized, μ is the mean of the population, and σ is the standard deviation of the population].
# To determine the effective concentration of compounds, the dose-dependent effect of potential inhibitors on exoS expression and bacterial growth were tested. P. aeruginosa cells carrying pATexoS were pre-cultured in LB supplemented with 200 mM NaCl and transferred to fresh LB with 200 mM NaCl, 10 mM NTA, and various concentrations of compounds (20, 50, 100, and 250 μM) or DMSO for 6 h. […] At 50 μM dosage, both 027 and 101 inhibited exoS expression at similar levels, and this inhibitory effect increased as compound concentration increased (FIG. 38A and Table 17). […] These inhibitions/inductions of exoS expression are caused by the shifting bacterial population between low-state expression cells and high-state expression cells (FIG. 40).
row,SMILES,Actual readings of flow cytometry (exoS expression)
1,"COC(=O)/C=C/c1ccc(O)cc1 [Compound 101, Methyl para-coumate]",122.82 ± 2.89

# Same assay, conditions: 50 uM, 6 h, LB with 200 mM NaCl, 10 mM NTA
row,SMILES,Actual readings of flow cytometry (exoS expression)
1,"COC(=O)/C=C/c1ccc(O)cc1 [Compound 101, Methyl para-coumate]",106.83 ± 3.09

# Same assay, conditions: 100 uM, 6 h, LB with 200 mM NaCl, 10 mM NTA
row,SMILES,Actual readings of flow cytometry (exoS expression)
1,"COC(=O)/C=C/c1ccc(O)cc1 [Compound 101, Methyl para-coumate]",100.10 ± 1.33

# Same assay, conditions: 250 uM, 6 h, LB with 200 mM NaCl, 10 mM NTA
row,SMILES,Actual readings of flow cytometry (exoS expression)
1,"COC(=O)/C=C/c1ccc(O)cc1 [Compound 101, Methyl para-coumate]",81.88 ± 2.41

# Same assay, conditions: structure-activity table; concentration not given
row,SMILES,Fraction of untreated control (exoS expression)
1,"COC(=O)/C=C/c1ccc(O)cc1 [Compound 101, Methyl para-coumate]",0.65 ± 0.03

# Test system: hrpA promoter (T3SS)
# Assay: hrpA promoter-probe phrpA in Erwinia amylovora 273, flow cytometry
# Type: cell-based
# Details: Ea273 (phrpA), HIM + 100 μM compound, 6 h
# Procedure: Wild-type Erwinia amylovora 273 was used in this study. The promoter-probe plasmid phrpA was constructed as follows. The hrpA promoter region of Erwinia amylovora 273 was amplified and cloned into pPROBE-NT to produce PhrpA. Plasmid PhrpA was electroporated into Erwinia amylovora 273. Expression of hrpA was analyzed using a FACS Calibur flow cytometer (BD Biosciences, CA). Wild-type Erwinia amylovora 273 containing phrpA was cultured in a hrp-inducing medium (HIM) containing dimethyl sulfoxide (DMSO; solvent of chemical compounds), or HIM supplemented with 100 μM of each compound, and promoter activity was assessed at 6 h and 9 h by measuring GFP intensity using flow cytometry (Table 19).
row,SMILES,"Avg MFI ± SD, hrpA expression"
1,"COC(=O)/C=C/c1ccc(O)cc1 [Compound 101, Methyl para-coumate]",1443.4 ± 49.4
2,"COc1ccc(/C=C/CO)cc1 [Compound 126, trans-4-Methoxycinnamyl alcohol]",386.9 ± 9.4
3,"O=C(O)/C=C/c1ccc(Br)cc1 [Compound 111, trans-4-Bromocinnamic acid]",102.8 ± 23.5
4,"O=C(/C=C/c1c[nH]c2ccccc12)NO [Compound 127, trans-3-Indoleacrylohydroxamic acid]",91.4 ± 4.9
5,"CCOC(=O)[C@@H]1C[C@H]1c1ccc(O)cc1 (relative stereo) [Compound 106, Ethyl trans-2-(4-hydroxyphenyl)-1-cyclopropanecarboxylate]",1289.3 ± 46.5
6,"O=C1c2ccccc2C(=O)N1C/C=C/c1ccc(O)cc1 [Compound 116, N-(para-Coumaryl)phthalimide]",889.1 ± 61.8
7,"COc1ccc(/C=C/CN2C(=O)c3ccccc3C2=O)cc1 [Compound 118, N-(4-Methoxycinnamyl)phthalimide]",361.3 ± 28.6

# Same assay, conditions: Ea273 (phrpA), HIM + 100 μM compound, 9 h
row,SMILES,"Avg MFI ± SD, hrpA expression"
1,"COC(=O)/C=C/c1ccc(O)cc1 [Compound 101, Methyl para-coumate]",1227.8 ± 41.6
2,"COc1ccc(/C=C/CO)cc1 [Compound 126, trans-4-Methoxycinnamyl alcohol]",401.4 ± 10.8
3,"O=C(O)/C=C/c1ccc(Br)cc1 [Compound 111, trans-4-Bromocinnamic acid]",61.8 ± 4.2
4,"O=C(/C=C/c1c[nH]c2ccccc12)NO [Compound 127, trans-3-Indoleacrylohydroxamic acid]",102.7 ± 0.5
5,"CCOC(=O)[C@@H]1C[C@H]1c1ccc(O)cc1 (relative stereo) [Compound 106, Ethyl trans-2-(4-hydroxyphenyl)-1-cyclopropanecarboxylate]",1110.9 ± 67.5
6,"O=C1c2ccccc2C(=O)N1C/C=C/c1ccc(O)cc1 [Compound 116, N-(para-Coumaryl)phthalimide]",1466.4 ± 17.8
7,"COc1ccc(/C=C/CN2C(=O)c3ccccc3C2=O)cc1 [Compound 118, N-(4-Methoxycinnamyl)phthalimide]",520.4 ± 16.2

# Test system: hrpS promoter
# Assay: GFP reporter plasmid phrpS, flow cytometry of hrpS promoter activity
# Type: cell-based, Dickeya dadantii 3937
# Details: reporter plasmid phrpS
# Procedure: as §1
# To test for an inhibitory effect on T3SS hrpS expression, the reporter plasmid phrpS was used to measure the effects of these compounds on hrpA expression.
row,SMILES,"inhibitory effect on T3SS hrpS expression, in words"
1,"COc1ccc(/C=C/CO)cc1 [Compound 126, trans-4-Methoxycinnamyl alcohol]",inhibited hrpS
2,"O=C(O)/C=C/c1ccc(Br)cc1 [Compound 111, trans-4-Bromocinnamic acid]",inhibited hrpS
3,"O=C(/C=C/c1c[nH]c2ccccc12)NO [Compound 127, trans-3-Indoleacrylohydroxamic acid]",inhibited hrpS
4,"CCOC(=O)[C@@H]1C[C@H]1c1ccc(O)cc1 (relative stereo) [Compound 106, Ethyl trans-2-(4-hydroxyphenyl)-1-cyclopropanecarboxylate]",inhibited hrpS
